Targets include Adenosine receptor A2a (Homo sapiens, UniProt P29274); Melanocortin receptor 3 (Homo sapiens, UniProt P41968); Motilin receptor (Homo sapiens, UniProt O43193).
For a further assay, the target named is T1, Thromboxane A2 receptor (Homo sapiens, UniProt P21731).
T1 sequence (P21731 whole entry): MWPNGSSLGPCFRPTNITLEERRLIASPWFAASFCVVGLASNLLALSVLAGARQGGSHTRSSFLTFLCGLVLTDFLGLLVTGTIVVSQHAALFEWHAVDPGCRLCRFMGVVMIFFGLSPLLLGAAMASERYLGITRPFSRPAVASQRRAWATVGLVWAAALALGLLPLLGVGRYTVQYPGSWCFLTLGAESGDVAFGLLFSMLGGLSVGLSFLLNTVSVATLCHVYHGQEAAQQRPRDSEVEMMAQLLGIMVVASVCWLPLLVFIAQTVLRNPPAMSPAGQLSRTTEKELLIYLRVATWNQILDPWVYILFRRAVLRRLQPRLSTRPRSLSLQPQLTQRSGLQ

The target of another assay is T2, B2 bradykinin receptor (Homo sapiens, UniProt P30411).
T2 sequence (P30411 whole entry): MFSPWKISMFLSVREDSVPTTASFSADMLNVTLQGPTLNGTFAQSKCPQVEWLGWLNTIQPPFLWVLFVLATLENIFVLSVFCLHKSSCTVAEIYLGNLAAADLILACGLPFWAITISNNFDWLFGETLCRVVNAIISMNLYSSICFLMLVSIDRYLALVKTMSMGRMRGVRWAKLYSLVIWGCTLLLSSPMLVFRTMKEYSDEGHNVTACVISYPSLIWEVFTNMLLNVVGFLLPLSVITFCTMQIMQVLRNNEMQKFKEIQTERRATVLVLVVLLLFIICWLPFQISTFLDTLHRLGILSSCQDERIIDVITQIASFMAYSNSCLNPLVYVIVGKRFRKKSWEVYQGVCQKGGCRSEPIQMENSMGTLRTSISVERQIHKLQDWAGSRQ

The target in a further assay is T3, Endothelin-1 receptor (Homo sapiens, UniProt P25101).
T3 sequence (P25101 whole entry): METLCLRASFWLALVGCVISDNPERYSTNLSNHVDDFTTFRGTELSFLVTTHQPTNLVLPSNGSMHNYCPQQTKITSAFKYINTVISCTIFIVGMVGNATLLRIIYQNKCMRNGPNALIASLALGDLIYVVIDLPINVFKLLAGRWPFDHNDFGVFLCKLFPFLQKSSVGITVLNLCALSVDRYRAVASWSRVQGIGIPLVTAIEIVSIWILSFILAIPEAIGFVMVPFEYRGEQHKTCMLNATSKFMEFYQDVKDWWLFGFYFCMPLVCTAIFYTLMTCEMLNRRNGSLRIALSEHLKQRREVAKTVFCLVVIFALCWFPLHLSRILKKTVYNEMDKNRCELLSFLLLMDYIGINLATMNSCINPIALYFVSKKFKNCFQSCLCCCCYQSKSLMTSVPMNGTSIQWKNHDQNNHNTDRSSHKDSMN

In assay [1] the target is T4, Amine oxidase [flavin-containing] A (Homo sapiens, UniProt P21397).
T4 sequence (P21397 whole entry): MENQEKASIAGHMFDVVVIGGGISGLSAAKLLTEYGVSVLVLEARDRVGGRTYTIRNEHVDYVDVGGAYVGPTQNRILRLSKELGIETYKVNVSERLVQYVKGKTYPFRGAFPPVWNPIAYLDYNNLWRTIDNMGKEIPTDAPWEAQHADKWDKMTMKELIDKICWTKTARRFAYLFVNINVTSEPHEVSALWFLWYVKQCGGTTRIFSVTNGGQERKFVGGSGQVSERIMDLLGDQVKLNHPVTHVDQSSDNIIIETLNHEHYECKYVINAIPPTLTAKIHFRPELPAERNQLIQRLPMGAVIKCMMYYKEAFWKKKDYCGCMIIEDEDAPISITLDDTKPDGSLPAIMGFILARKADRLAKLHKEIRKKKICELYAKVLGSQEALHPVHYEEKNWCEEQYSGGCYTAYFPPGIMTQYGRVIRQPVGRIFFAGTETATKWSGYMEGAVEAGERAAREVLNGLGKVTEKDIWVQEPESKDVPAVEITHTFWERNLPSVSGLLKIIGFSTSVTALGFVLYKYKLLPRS
Type of assay: functional.

Assay [2] deals with Delta-type opioid receptor (Homo sapiens, UniProt P41143).
Delta-type opioid receptor, sequence (P41143 whole entry): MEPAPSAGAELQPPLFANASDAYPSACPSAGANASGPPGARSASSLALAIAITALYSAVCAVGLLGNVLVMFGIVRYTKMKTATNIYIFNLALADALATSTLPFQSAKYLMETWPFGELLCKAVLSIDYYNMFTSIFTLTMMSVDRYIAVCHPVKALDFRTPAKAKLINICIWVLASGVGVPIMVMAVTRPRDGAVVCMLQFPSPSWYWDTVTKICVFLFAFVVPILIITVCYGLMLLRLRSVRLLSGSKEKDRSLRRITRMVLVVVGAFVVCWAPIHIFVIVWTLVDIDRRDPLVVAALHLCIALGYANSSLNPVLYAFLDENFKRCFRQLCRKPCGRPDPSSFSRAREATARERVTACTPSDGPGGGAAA
For assay [3], the target named is Beta-2 adrenergic receptor (Homo sapiens, UniProt P07550).
Beta-2 adrenergic receptor, sequence (P07550 whole entry): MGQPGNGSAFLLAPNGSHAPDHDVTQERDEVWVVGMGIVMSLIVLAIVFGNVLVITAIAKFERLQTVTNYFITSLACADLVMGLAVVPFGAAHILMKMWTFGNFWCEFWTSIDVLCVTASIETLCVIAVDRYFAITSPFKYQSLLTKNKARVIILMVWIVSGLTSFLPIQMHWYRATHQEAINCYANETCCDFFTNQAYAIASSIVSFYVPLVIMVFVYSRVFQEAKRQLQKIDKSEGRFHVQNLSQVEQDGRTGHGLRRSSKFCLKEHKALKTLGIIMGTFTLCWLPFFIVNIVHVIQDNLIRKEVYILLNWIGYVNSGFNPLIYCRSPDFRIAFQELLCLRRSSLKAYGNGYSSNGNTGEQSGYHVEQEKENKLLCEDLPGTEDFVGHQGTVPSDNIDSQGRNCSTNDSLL
For assay [4], the target named is Neuronal acetylcholine receptor subunit alpha-4 (Homo sapiens, UniProt P43681).
Neuronal acetylcholine receptor subunit alpha-4, sequence (P43681 whole entry): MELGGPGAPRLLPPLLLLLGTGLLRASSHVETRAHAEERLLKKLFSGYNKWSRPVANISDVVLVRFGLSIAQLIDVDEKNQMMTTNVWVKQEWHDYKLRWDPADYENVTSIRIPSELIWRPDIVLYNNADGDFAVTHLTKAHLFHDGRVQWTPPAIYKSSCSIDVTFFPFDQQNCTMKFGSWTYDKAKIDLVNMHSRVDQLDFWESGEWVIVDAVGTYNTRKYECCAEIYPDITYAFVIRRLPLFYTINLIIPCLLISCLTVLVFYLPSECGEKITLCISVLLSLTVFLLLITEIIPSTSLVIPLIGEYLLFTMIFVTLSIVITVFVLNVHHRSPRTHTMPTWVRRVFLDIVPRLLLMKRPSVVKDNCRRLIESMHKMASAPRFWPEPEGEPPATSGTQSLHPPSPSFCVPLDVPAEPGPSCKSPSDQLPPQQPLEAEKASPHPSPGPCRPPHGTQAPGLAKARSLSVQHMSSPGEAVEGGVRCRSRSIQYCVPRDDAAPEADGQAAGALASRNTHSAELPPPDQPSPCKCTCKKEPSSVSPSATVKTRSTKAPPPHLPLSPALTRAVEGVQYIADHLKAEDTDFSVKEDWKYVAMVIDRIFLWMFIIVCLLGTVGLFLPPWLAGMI
The next assay concerns the target T5, Glucocorticoid receptor (Homo sapiens, UniProt P04150).
T5 sequence (P04150 whole entry): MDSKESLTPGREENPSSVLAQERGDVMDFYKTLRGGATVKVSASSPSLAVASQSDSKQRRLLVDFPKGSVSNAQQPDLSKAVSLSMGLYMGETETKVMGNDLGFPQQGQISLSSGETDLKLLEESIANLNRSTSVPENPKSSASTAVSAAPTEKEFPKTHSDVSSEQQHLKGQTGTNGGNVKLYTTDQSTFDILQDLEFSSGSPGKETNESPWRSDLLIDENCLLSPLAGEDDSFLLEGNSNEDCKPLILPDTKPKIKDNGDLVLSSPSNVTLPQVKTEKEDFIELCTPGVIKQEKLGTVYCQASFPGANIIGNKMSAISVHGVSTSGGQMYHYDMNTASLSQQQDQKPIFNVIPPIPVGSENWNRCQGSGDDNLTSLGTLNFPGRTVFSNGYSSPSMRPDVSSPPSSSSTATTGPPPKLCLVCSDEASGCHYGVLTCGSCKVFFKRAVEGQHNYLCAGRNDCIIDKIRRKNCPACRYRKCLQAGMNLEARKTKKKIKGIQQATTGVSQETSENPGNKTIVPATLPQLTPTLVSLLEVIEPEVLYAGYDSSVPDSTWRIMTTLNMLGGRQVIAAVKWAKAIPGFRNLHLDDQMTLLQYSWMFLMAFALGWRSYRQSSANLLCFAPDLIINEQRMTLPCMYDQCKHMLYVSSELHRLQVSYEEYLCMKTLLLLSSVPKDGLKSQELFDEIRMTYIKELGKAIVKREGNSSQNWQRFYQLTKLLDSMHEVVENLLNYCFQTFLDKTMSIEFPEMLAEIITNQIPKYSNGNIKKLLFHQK

Assay [5] has as its target Muscarinic acetylcholine receptor M3 (Homo sapiens, UniProt P20309).
In assay [6] the target is 5-hydroxytryptamine receptor 2A (Homo sapiens, UniProt P28223). Type of assay: functional, cell-based.
5-hydroxytryptamine receptor 2A, sequence (P28223 whole entry): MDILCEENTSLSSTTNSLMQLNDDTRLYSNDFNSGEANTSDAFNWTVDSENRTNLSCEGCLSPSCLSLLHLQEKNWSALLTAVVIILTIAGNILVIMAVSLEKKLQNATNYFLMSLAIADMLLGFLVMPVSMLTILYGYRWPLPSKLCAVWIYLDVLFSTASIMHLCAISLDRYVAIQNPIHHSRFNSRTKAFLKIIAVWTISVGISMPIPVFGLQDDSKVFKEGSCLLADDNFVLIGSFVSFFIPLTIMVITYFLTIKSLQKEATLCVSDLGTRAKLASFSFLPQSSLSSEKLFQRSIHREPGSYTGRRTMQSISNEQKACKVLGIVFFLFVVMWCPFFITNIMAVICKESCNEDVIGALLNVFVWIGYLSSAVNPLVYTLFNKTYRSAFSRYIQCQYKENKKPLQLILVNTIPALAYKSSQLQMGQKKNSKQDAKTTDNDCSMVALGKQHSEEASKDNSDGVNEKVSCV

SMILES strings stand for the structures. “And” between values parts separate entries of the source, which are not always exact repeats. Identical values can stand only once. Bounds are passed on as bounds.
Note: assay procedure not described here.

Adenosine receptor A2a, sequence (P29274 whole entry): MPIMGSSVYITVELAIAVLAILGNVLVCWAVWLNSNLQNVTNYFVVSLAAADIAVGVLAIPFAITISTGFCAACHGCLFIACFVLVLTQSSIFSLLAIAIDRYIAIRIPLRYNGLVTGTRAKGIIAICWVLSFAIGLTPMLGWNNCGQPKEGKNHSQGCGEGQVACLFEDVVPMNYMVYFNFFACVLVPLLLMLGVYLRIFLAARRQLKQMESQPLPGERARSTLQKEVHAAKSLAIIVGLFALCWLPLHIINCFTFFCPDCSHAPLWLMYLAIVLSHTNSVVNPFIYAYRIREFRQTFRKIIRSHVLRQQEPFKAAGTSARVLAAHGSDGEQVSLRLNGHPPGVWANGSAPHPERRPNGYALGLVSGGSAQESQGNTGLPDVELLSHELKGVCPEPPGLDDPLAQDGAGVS
Muscarinic acetylcholine receptor M3, sequence (P20309 whole entry): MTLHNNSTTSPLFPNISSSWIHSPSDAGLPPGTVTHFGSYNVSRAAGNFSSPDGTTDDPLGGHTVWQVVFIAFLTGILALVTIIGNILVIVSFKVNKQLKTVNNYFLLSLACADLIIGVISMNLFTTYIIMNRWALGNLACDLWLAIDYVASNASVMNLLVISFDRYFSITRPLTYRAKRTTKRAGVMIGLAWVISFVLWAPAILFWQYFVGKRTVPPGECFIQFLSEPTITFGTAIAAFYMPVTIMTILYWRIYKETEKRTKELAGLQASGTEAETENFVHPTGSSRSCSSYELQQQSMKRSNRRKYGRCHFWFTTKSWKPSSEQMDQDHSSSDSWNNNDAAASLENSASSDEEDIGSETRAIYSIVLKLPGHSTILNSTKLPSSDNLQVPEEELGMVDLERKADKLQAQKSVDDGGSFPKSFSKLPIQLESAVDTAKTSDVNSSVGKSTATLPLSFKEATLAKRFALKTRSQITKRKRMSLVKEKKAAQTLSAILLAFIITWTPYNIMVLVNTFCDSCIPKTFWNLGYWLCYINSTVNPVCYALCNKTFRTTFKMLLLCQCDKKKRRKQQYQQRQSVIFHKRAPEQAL
Melanocortin receptor 3, sequence (P41968 whole entry): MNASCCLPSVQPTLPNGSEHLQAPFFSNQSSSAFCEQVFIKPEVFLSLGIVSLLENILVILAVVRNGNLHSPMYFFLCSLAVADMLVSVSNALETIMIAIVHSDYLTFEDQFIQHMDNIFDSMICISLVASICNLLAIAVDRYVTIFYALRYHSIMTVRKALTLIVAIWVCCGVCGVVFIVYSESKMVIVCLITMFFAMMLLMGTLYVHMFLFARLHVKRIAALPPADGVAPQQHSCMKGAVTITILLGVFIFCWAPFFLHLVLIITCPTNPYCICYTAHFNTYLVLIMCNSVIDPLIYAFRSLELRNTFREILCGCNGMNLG
Motilin receptor, sequence (O43193 whole entry): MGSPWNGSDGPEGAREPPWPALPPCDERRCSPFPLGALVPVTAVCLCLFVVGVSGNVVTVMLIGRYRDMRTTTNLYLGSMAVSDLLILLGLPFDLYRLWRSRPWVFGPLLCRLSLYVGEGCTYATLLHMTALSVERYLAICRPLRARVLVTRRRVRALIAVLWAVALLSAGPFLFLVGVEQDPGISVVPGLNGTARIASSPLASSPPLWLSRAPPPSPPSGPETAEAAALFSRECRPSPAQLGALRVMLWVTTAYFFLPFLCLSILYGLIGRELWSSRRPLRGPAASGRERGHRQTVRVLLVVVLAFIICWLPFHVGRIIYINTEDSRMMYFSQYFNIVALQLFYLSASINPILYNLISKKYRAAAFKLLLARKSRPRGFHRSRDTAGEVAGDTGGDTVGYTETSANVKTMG

Regarding `CC[N+]1(C)CCCC(OC(=O)C(O)(c2ccccc2)c2ccccc2)C1` (stereo unspecified) [PIPENZOLATE], the half-maximal activity concentration (AC50) (at Thromboxane A2 receptor; on B2 bradykinin receptor; on Endothelin-1 receptor; in assay [1]; in assay [2]; at Adenosine receptor A2a) was more than 30 µM each time. For the same molecule, the AC50 at Melanocortin receptor 3 is more than 30 µM; in [3], more than 30 µM; in assay [4], more than 30 µM; at Glucocorticoid receptor, more than 30 µM; on Motilin receptor it was more than 30 µM; in assay [5], 0.019 µM. In assay [6], this molecule showed an AC50 of more than 30 µM.
With `CC(=O)c1ccc2c(c1)N(CCCN1CCC(CCO)CC1)c1ccccc1S2` [PIPERACETAZINE], the AC50 (at Thromboxane A2 receptor; on B2 bradykinin receptor; at Endothelin-1 receptor; in assay [1]; in assay [2]; on Adenosine receptor A2a) was more than 30 µM throughout. The concentration at half-maximal activity (AC50) is more than 30 µM at Melanocortin receptor 3; 22 µM in [3]; more than 30 µM in [4]; more than 30 µM at Glucocorticoid receptor; more than 30 µM on Motilin receptor; 9.5 µM in assay [5]. Also, the activity in assay [6] was half-maximal at 0.3 µM (AC50).
For `CCN(CC)CC(=O)Oc1ccc(NC(C)=O)cc1` [PROPACETAMOL], the AC50 (on Thromboxane A2 receptor; on B2 bradykinin receptor; at Endothelin-1 receptor; in [1]; in [2]; at Adenosine receptor A2a) was more than 30 µM in each case. Besides, the AC50 (on Melanocortin receptor 3; in [3]; in assay [4]; on Glucocorticoid receptor; on Motilin receptor; in assay [5]) was more than 30 µM throughout. The AC50 in assay [6] was more than 30 µM.
On to `CCCOC(C(=O)OC1CCN(C)CC1)(c1ccccc1)c1ccccc1` [PROPIVERINE], for which the AC50 (on Thromboxane A2 receptor; at B2 bradykinin receptor; on Endothelin-1 receptor; in assay [1]; in assay [2]; at Adenosine receptor A2a) was more than 30 µM each time. The AC50 is more than 30 µM on Melanocortin receptor 3; more than 30 µM in [3]; more than 30 µM in assay [4]; more than 30 µM on Glucocorticoid receptor; 15 µM on Motilin receptor; 0.83 µM in assay [5]. This molecule also registered an AC50 in assay [6] of 26 µM.
For `Cc1ccc2c(-c3ccccc3)nc(=O)n(C(C)C)c2c1` [PROQUAZONE], the half-maximal activity concentration (AC50) on Thromboxane A2 receptor was 11 µM; at B2 bradykinin receptor it was more than 10 µM; at Endothelin-1 receptor, more than 30 µM; in assay [1] it was more than 30 µM; in assay [2] it was 30 µM; at Adenosine receptor A2a, more than 30 µM. The half-maximal activity concentration (AC50) (at Melanocortin receptor 3; in assay [3]; in assay [4]; on Glucocorticoid receptor; on Motilin receptor; in [5]) was more than 30 µM each time. In addition, the concentration at half-maximal activity (AC50) in assay [6] was more than 30 µM.
For `CC(NCCc1ccc(O)cc1)C(O)c1ccc(O)cc1` (stereo unspecified) [RITODRINE], the AC50 (on Thromboxane A2 receptor; on B2 bradykinin receptor; at Endothelin-1 receptor; in assay [1]; in assay [2]; at Adenosine receptor A2a) was more than 30 µM in each case. In addition, the concentration at half-maximal activity (AC50) is more than 30 µM at Melanocortin receptor 3; 4.71 µM and 4.14 µM in assay [3]; more than 30 µM in [4]; more than 30 µM at Glucocorticoid receptor; more than 30 µM on Motilin receptor; more than 30 µM in assay [5]. This molecule also registered a half-maximal activity concentration (AC50) in [6] of more than 30 µM.
Turning to `CN1c2ccccc2C(NCCCCCCC(=O)O)c2ccc(Cl)cc2S1(=O)=O` (stereo unspecified) [TIANEPTINE], the AC50 at Thromboxane A2 receptor was more than 30 µM; on B2 bradykinin receptor, more than 30 µM; at Endothelin-1 receptor, more than 30 µM; in assay [1] it was more than 30 µM; in [2], 28 µM; on Adenosine receptor A2a, more than 30 µM. Besides, the AC50 (at Melanocortin receptor 3; in [3]; in [4]; at Glucocorticoid receptor; at Motilin receptor; in [5]) was more than 30 µM each time. This molecule yielded an AC50 in assay [6] of more than 30 µM.

These data come from ChEMBL document CHEMBL5291721, “A preclinical secondary pharmacology resource illuminates target-adverse drug reaction associations of marketed drugs” (Nat Commun, 2023).
